Usually IC50 stands for the concentration that gives 50% inhibition. Broadly, the Ki is a dissociation constant, usually derived from enzyme kinetics or from competition with a known ligand.

Where two headings read alike, the source gives them in different places.

These results are taken from patent US8680111B2 (Pfizer Inc., priority 2012, dated 2014).

Series [1] concerns the target T1, WT EML4-ALK (NIH-3T3 EML4-ALK wt v1 cells) (Homo sapiens, UniProt Q9UM73).
T1 construct: expressed in transfected cells; the other entry of the earlier key: EML4 (Q9HC35, Echinoderm microtubule-associated protein-like 4)
In words: Cellular phospho-ALK (Tyr1604) ELISA assay for WT EML4-ALK. It is filed as cell-based. The note with it: 1 hour. Background: ELISA stands for enzyme-linked immunosorbent assay.

For series [2], the target named is T2, human recombinant L1196M ALK kinase domain (amino acids 1093-1411) (Homo sapiens, UniProt Q9UM73, L1196M).
T2 construct: ALK kinase domain (amino acids 1093-1411); made in house
In words: L1196M mutant ALK enzyme assay (microfluidic mobility shift). It is filed as biochemical.

Series [3] addresses T3, human recombinant wild-type ALK kinase domain (amino acids 1093-1411) (Homo sapiens, UniProt Q9UM73).
T3 construct: ALK kinase domain (amino acids 1093-1411); made in house
Briefly: Wild-type ALK enzyme assay (microfluidic mobility shift). It is filed as biochemical. The note with it: ATP 60 μM, competitive inhibition fit.
Description: The reactions were incubated for 1 h at room temperature, stopped by the addition of 0.1 M EDTA, pH 8, and the extent of reactions (˜15-20% conversion with no inhibitor) was determined after electrophoretic separation of the fluorescently labeled peptide substrate and phosphorylated product on an LabChip EZ Reader II (Caliper Life Sciences, Hopkinton, Mass.).

For series [4], the target named is T4, L1196M EML4-ALK (NIH-3T3 EML4-ALK v1 L1196M cells) (Homo sapiens, UniProt Q9UM73, L1196M).
T4 construct: expressed in transfected cells; the other entry of the earlier key: EML4 (Q9HC35, Echinoderm microtubule-associated protein-like 4)
Briefly: Cellular phospho-ALK (Tyr1604) ELISA assay for L1196M EML4-ALK. It is filed as cell-based.
Description: Cellular Phospho-ALK (Tyr1604) ELISA Assay for EML4-ALK:
The cells were maintained at 37° C. in a 5% CO2 incubator in DMEM (Invitrogen, Carlsbad, Calif.) medium supplemented with 1% L-glutamine, 1% penicillin and streptomycin, 1 ug/ml puromycin and 10% new born calf serum (NCS) in T-75 flasks.
Cells were washed with PBS and re-suspended in DMEM medium supplemented with 0.5% NCS and 1% pen/strep and seeded into 96-well plates at density of 20,000 cells/well/100 μl and incubated in the incubator at 37° C. and 5% CO2. After 20 hours of incubation, 100 μl of assay media (DMEM) in presence of designated PF-compounds concentrations or controls (DMSO) were added into plates and incubated for 1 hour in the incubator. Media was then removed and lysis buffer, containing phosphatase inhibitors and phenylmethanesulfonyl fluoride (PMSF), was added to wells and shaken at 4° C. for 30 minutes to generate protein lysates.
A phospho-ALK (Tyr1604) rabbit antibody was coated onto the 96-well microplates. 50 μl of cell lysates were added to the antibody coated plate and incubated at room temperature for 2 hours. Following extensive washing with 0.1% Tween 20 in PBS to remove unbound materials, ALK mouse mAb was added to detect captured phospho-ALK (Tyr1604) and phospho-ALK fusion proteins. Anti-mouse IgG, HRP-linked antibody was then used to recognize the bound detection antibody. Finally, the chemiluminescent reagent was added and incubated for 10 minutes for signal development. The assay plates were read in the Envision plate reader in the luminescent mode. IC50 values were calculated by a concentration-response curve fitting using a four-parameter analytic method.

The conditions of series [5]: cc_pd bond.
For series [6] the following is noted: 12-membered ring.
Setting [7] is: read-out: ELISA assay for WT EML4-ALK (IC50).
The mark [8] stands for this setting: ATP 60 μM, 0.5 nM enzyme, competitive inhibition fit, read-out: L1196M ALK enzyme assay (Ki).
[9] abbreviates: read-out: WT ALK enzyme assay (Ki).
Where [10] appears, read: NIH-3T3 EML4-ALK v1 L1196M cells, 1 hour, phospho-ALK (Tyr1604), read-out: ELISA assay for L1196M EML4-ALK (IC50).

As to `C[C@H]1Oc2nc(cnc2N)-c2c(C#N)noc2CN(C)C(=O)c2ccc(F)cc21` [Example 73, (10R)-7-amino-12-fluoro-10,16-dimethyl-15-oxo-10,15,16,17-tetrahydro-8,4-(azeno)[1,2]oxazolo[4,5-h][2,5,11]benzoxadiazacyclotetradecine-3-carbonitrile], the half-inhibitory concentration (IC50) in series [1] (setting [7]) was found to be 12.8 nM; in series [4] (setting [10]), 169 nM. Besides, the values for the Ki in series [2] (setting [8]) and in series [3] (setting [9]) were 2.4 nM and 0.33 nM, respectively. The ring closure, yield after HPLC (cc_pd bond, 12-membered ring, Pd(OAc)2/cataCXium A/KOAc/PivOH, DMA, 49.9 mM, 120.0 °C) was found to be 21%.
Regarding `C[C@H]1Oc2nc(cnc2N)-c2c(C(N)=O)noc2CN(C)C(=O)c2ccc(F)cc21` [Example 72, (10R)-7-amino-12-fluoro-10,16-dimethyl-15-oxo-10,15,16,17-tetrahydro-8,4-(azeno)[1,2]oxazolo[4,5-h][2,5,11]benzoxadiazacyclotetradecine-3-carboxamide], the IC50 in series [1] (setting [7]) turned out to be 347 nM; in series [4] (setting [10]), 4270 nM. Also, the Ki stood at 28 nM in series [2] (setting [8]) and 5.1 nM in series [3] (setting [9]). The molecule further registered a ring closure, yield after HPLC (cc_pd bond, 12-membered ring, Pd(OAc)2/cataCXium A/KOAc/PivOH, DMA, […], 120.0 °C) of 12%.
`C[C@H]1Oc2cc(cnc2N)-c2c(n[nH]c2C#N)CN(C)C(=O)c2ccc(F)cc21` [Example 88, (10R)-7-amino-12-fluoro-10,16-dimethyl-15-oxo-10,15,16,17-tetrahydro-2H-8,4-(metheno)pyrazolo[4,3-h][2,5,11]benzoxadiazacyclotetradecine-3-carbonitrile]: the IC50 amounted to 15.5 nM in series [1] (setting [7]) and 191 nM in series [4] (setting [10]). For the same molecule, the Ki in series [2] (setting [8]) came out at 0.39 nM; in series [3] (setting [9]), 0.2 nM. This molecule also returned a ring closure, yield after HPLC (amide bond, 12-membered ring, HATU/DIEA, DMF, 8.3 mM, 0.0 °C) of 12%.
In series [5] (from Cc1nn(C)c(CN(C)C(=O)c2ccc(F)cc2C(C)Oc2nc(Br)cnc2N)c1Br, Pd(OAc)2 / di(1-adamantyl)-n-butylphosphine, bis(pinacolato)diboron, CsF, MeOH, 42.4 mM, 100.0 °C, 8.5 h, 2 steps), `Cc1nn(C)c2c1-c1cnc(N)c(n1)OC(C)c1cc(F)ccc1C(=O)N(C)C2` (centres unmarked) displayed a ring closure, yield of all isomers of 6%.
As for `C[C@H]1Oc2nc(cnc2N)-c2c(C#N)nn(CC(F)F)c2CN(C)C(=O)c2ccc(F)cc21` [Example 90, (10R)-7-amino-1-(2,2-difluoroethyl)-12-fluoro-10,16-dimethyl-15-oxo-10,15,16,17-tetrahydro-1H-8,4-(azeno)pyrazolo[4,3-h][2,5,11]benzoxadiazacyclotetradecine-3-carbonitrile], the IC50 in series [1] (setting [7]) was found to be 1.32 nM; in series [4] (setting [10]) it was 13 nM. Moreover, the Ki was determined as 0.249 nM in series [2] (setting [8]) and 0.079 nM in series [3] (setting [9]). In series [6] (cc_pd bond, Pd(OAc)2/cataCXium A/KOAc, t-amyl alcohol, 46.7 mM), the ring closure, isolated yield turned out to be 11%.
`C[C@H]1Oc2nc(cnc2N)-c2c(C#N)n[nH]c2CN(C)C(=O)c2ccc(F)cc21` [Example 89, (10R)-7-amino-12-fluoro-10,16-di methyl-15-oxo-10,15,16,17-tetrahydro-1H-8,4-(azeno)pyrazolo[4,3-h][2,5,11]benzoxadiazacyclotetradecine-3-carbonitrile]: the IC50 in series [1] (setting [7]) worked out at 6.43 nM; in series [4] (setting [10]), 56 nM. Further, the Ki turned out to be 0.275 nM in series [2] (setting [8]) and 0.339 nM in series [3] (setting [9]). The ring closure, isolated yield in series [6] (amide bond, HATU/DIEA, DMF, 12.6 mM) was 15.8%.
For `C[C@H]1Oc2nc(cnc2N)-c2cn(C)nc2CN(C)C(=O)c2ccc(F)cc21` [Example 56, (10R)-7-amino-12-fluoro-2,10,16-trimethyl-16,17-dihydro-2H-8,4-(azeno)pyrazolo[4,3-h][2,5,11]benzoxadiazacyclotetradecin-15(10H)-one], the 50% inhibitory concentration (IC50) amounted to 1.83 nM in series [1] (setting [7]) and 35 nM in series [4] (setting [10]). Besides, the Ki amounted to 0.88 nM in series [2] (setting [8]) and 0.2 nM in series [3] (setting [9]). For the same molecule, the ring closure, isolated yield in series [6] (cc_pd bond, Pd(OAc)2/cataCXium A/KOAc, t-amyl alcohol, 69.8 mM, 120.0 °C) was determined as 6%.
For `Cc1cnc2nc3c(n2c1)-c1cnc(N)c(c1)O[C@H](C)c1cc(F)ccc1C(=O)N(C)C3` [Example 57, (5R)-8-amino-3-fluoro-5,14,19-trimethyl-18,19-dihydro-7,11-(metheno)-pyrimido[2′,1′:2,3]imidazo[4,5-h][2,5,11]benzoxadiazacyclotetradecin-20(5H)-one], the half-inhibitory concentration (IC50) was 6.79 nM in series [1] (ELISA assay for WT EML4-ALK (IC50)) and 365 nM in series [4] (ELISA assay for L1196M EML4-ALK (IC50)). Moreover, the Ki in series [2] (L1196M ALK enzyme assay (Ki)) is 2 nM; in series [3] (WT ALK enzyme assay (Ki)), 0.14 nM. Besides, in series [6] (amide bond, HATU/DIEA, DMF, 25.1 mM), the ring closure, isolated yield came to 52%.
`C[C@H]1Oc2nc(cnc2N)-c2c(nc3ccc(C#N)cn23)CN(C)C(=O)c2ccc(F)cc21` displayed a ring closure, yield after HPLC (cc_pd bond, 12-membered ring, cataCXium/t-AmOH/KOAc, DMAc, 11.9 mM, 110.0 °C) of 12%.
`COc1nccc2c1-c1cnc(N)c(c1)OC(C)c1cc(F)ccc1C(=O)N(C)C2` (centres unmarked) [Example 45, 8-amino-13-fluoro-4-methoxy-11,17-dimethyl-17,18-dihydro-9,5-(metheno)pyrido[3,4-h][2,5,11]benzoxadiazacyclotetradecin-16(11H)-one]: the Ki was 500 nM in series [2] (setting [8]) and over 3000 nM in series [3] (setting [9]). Also, the ring closure, yield after HPLC (amide bond, 12-membered ring, CMPI/DIEA, DMA, 10.0 mM, 0.0 °C) was determined as 4%.
Molecule `Cc1cnc2nc3c(n2c1)-c1cnc(N)c(n1)O[C@H](C)c1cc(F)ccc1C(=O)N(C)C3` yielded a ring closure, yield of all isomers in series [5] (from Cc1cnc2nc(CN(C)C(=O)c3ccc(F)cc3[C@@H](C)Oc3nc(Br)cnc3N)cn2c1, Pd(OAc)2/cataCXium A, KOAc, tert-amyl alcohol, 30.0 mM, 120.0 °C, 2.0 h) of 50%.
In the case of `CCc1onc2c1-c1cnc(N)c(c1)O[C@H](C)c1cc(F)ccc1C(=O)N(C)C2` [Example 82, (10R)-7-amino-3-ethyl-12-fluoro-10,16-dimethyl-16,17-dihydro-8,4-(metheno)[1,2]oxazolo[4,3-h][2,5,11]benzoxadiazacyclotetradecin-15(10H)-one], the IC50 was found to be 11.1 nM in series [1] (setting [7]) and 183 nM in series [4] (setting [10]). For the same molecule, the Ki in series [2] (setting [8]) was 2.39 nM; in series [3] (setting [9]) it was under 0.2 nM. In series [6] (amide bond, 3 steps), this molecule displayed a ring closure, isolated yield of 66%.
Take `CCc1noc2c1-c1cnc(N)c(c1)O[C@H](C)c1cc(F)ccc1C(=O)N(C)C2` [Example 81, (10R)-7-amino-3-ethyl-12-fluoro-10,16-dimethyl-16,17-dihydro-8,4-(metheno)[1,2]oxazolo[4,5-h][2,5,11]benzoxadiazacyclotetradecin-15(10H)-one]: the IC50 in series [1] (setting [7]) turned out to be 2.25 nM; in series [4] (setting [10]) it was 52 nM. Also, the inhibition constant Ki in series [2] (setting [8]) is 3.9 nM; in series [3] (setting [9]), under 1.88 nM. For the same molecule, under “cc_pd bond, 12-membered ring, Pd(OAc)2/cataCXium A/KOAc/PivOH, DMA, 50.0 mM, […]”, the ring closure, yield after HPLC was found to be 6%.
Molecule `Cc1cnc2nc3cn2c1-c1cnc(N)c(n1)O[C@H](C)c1cc(F)ccc1C(=O)N(C)C3` showed a ring closure, yield after HPLC (cc_pd bond, Pd(OAc)2/cataCXium A/KOAc, t-amyl alcohol, 30.0 mM, 120.0 °C) of 7%.
As to `C[C@H]1Oc2cc(cnc2N)-c2c(nn(C)c2C#N)CN(C)C(=O)c2ccccc21` [Example 71, (10R)-7-amino-2,10,16-trimethyl-15-oxo-10,15,16,17-tetrahydro-2H-8,4-(metheno)pyrazolo[4,3-h][2,5,11]benzoxadiazacyclotetradecine-3-carbonitrile], the IC50 in series [1] (setting [7]) came out at 10.2 nM; in series [4] (setting [10]), 169 nM. The Ki is 3.73 nM in series [2] (setting [8]) and under 0.249 nM in series [3] (setting [9]). This molecule returned a ring closure, yield after HPLC (cc_pd bond, 12-membered ring, B2pin2/Pd(OAc)2/cataCXium A/CsF, MeOH/H2O, 12.7 mM, 100.0 °C) of 13%.
In the case of `C[C@H]1Oc2nc(cnc2N)-c2c(nn(C)c2C#N)CNC(=O)c2ccc(F)cc21` [Example 102, (10R)-7-amino-12-fluoro-2,10-dimethyl-15-oxo-10,15,16,17-tetrahydro-2H-8,4-(azeno)pyrazolo[4,3-h][2,5,11]benzoxadiazacyclotetradecine-3-carbonitrile], the figures for the IC50 in series [1] (setting [7]) and in series [4] (setting [10]) were 11.6 nM and 83.8 nM, respectively. In addition, the Ki in series [2] (setting [8]) was found to be 1.41 nM; in series [3] (setting [9]), 0.33 nM. Further, the ring closure, isolated yield in series [6] (amide bond, KOH, MeOH, […], 2 steps) was 28%.
